{
  "source": "patent US20100297194A1",
  "about": "“FORMULATION FOR ORAL ADMINISTRATION OF APOPTOSIS PROMOTER” (priority 2009, published 2010)",
  "format_in_all_cases": "physicochemical",
  "key": {"[1]": {"assay": "drug solubility in ternary excipient systems (Example 2)", "set-up": "key: ✓: vehicle miscible, or drug fully dissolved in vehicle; X: vehicle immiscible or miscible but turbid, or residual solids present (due to undissolved drug or precipitation)", "conditions": "10% salt, 20% free base", "description": "(§1) Solvents evaluated included Labrafil M 1944 CS™, Imwitor 742™ oleic acid, Capmul PG-8™, Capmul PG-12™, Lauroglycol 90™ and Phosal 53 MCT™. Surfactants evaluated included Tween™ 80, Cremophor RH40™, Gelucire 44/14™ and Labrasol™."}, "[2]": {"assay": "drug solubility in ternary excipient systems (Example 2)", "set-up": "key: ✓: vehicle miscible, or drug fully dissolved in vehicle", "conditions": "10% salt, 20% free base", "description": "as §1"}, "[3]": {"assay": "solubility in lipid solvents (Example 1)", "conditions": "ambient conditions, listed as ABT-263 bis-HCl salt", "procedure": "Solubility of ABT-263 parent (free base, crystalline Form I) and ABT-263 bis-HCl salt was tested in a variety of lipid solvents and solvent mixtures in ambient conditions. “PE-91” is Phosal 53 MCT™+ethanol, 9:1 by volume. “LOT-343” is Labrafil M 1944 CS™+oleic acid+Tween 80™, 30:40:30 by weight.\nIn some cases, indicated in Table 4 by an asterisk (*), solubility was initially high but precipitation occurred upon standing."}},
  "note": "Counter-ions that a name gives are not always drawn.",
  "data": [
    {"smiles": "CC1(C)CCC(c2ccc(Cl)cc2)=C(CN2CCN(c3ccc(C(=O)NS(=O)(=O)c4ccc(N[C@H](CCN5CCOCC5)CSc5ccccc5)c(S(=O)(=O)C(F)(F)F)c4)cc3)CC2)C1", "note": "[ABT-263 bis-HCl]", "values": [
      {"measurement": "ABT-263 solubility", "setting": "[1]; C8LL (Capmul PG-8/Labrafil M 1944 CS/Labrasol) 50:30:20 by weight", "result": "X"},
      {"measurement": "ABT-263 solubility", "setting": "[1]; C8LL (Capmul PG-8/Labrafil M 1944 CS/Labrasol) 50:40:10 by weight", "result": "X"},
      {"measurement": "ABT-263 solubility", "setting": "[1]; C8LL (Capmul PG-8/Labrafil M 1944 CS/Labrasol) 60:30:10 by weight", "result": "X"},
      {"measurement": "ABT-263 solubility", "setting": "[1]; C8LT (Capmul PG-8/Labrafil M 1944 CS/Tween 80) 30:40:30 by weight", "result": "X"},
      {"measurement": "ABT-263 solubility", "setting": "[1]; C8LT (Capmul PG-8/Labrafil M 1944 CS/Tween 80) 35:40:25 by weight", "result": "X"},
      {"measurement": "ABT-263 solubility", "setting": "[1]; C8LT (Capmul PG-8/Labrafil M 1944 CS/Tween 80) 40:30:30 by weight", "result": "X"},
      {"measurement": "ABT-263 solubility", "setting": "[1]; C8LT (Capmul PG-8/Labrafil M 1944 CS/Tween 80) 45:30:25 by weight", "result": "X"},
      {"measurement": "ABT-263 solubility", "setting": "[2]; C8LL (Capmul PG-8/Labrafil M 1944 CS/Labrasol) 40:40:20 by weight", "result": "✓"},
      {"measurement": "ABT-263 solubility", "setting": "[2]; C12LT (Capmul PG-12/Labrafil M 1944 CS/Tween 80) 30:40:30 by weight", "result": "✓"},
      {"measurement": "ABT-263 solubility", "setting": "[2]; C12LT (Capmul PG-12/Labrafil M 1944 CS/Tween 80) 35:40:25 by weight", "result": "✓"},
      {"measurement": "ABT-263 solubility", "setting": "[2]; C12LT (Capmul PG-12/Labrafil M 1944 CS/Tween 80) 40:30:30 by weight", "result": "✓"},
      {"measurement": "ABT-263 solubility", "setting": "[2]; C12LT (Capmul PG-12/Labrafil M 1944 CS/Tween 80) 45:30:25 by weight", "result": "✓"},
      {"measurement": "ABT-263 solubility", "setting": "[2]; ILC (Imwitor 742/Labrafil M 1944 CS/Cremophor RH40) 50:30:20 by weight, listed as ABT-263 bis-HCl salt", "result": "✓"},
      {"measurement": "ABT-263 solubility", "setting": "[2]; ILC (Imwitor 742/Labrafil M 1944 CS/Cremophor RH40) 50:40:10 by weight, listed as ABT-263 bis-HCl salt", "result": "✓"},
      {"measurement": "ABT-263 solubility", "setting": "[2]; ILC (Imwitor 742/Labrafil M 1944 CS/Cremophor RH40) 60:30:10 by weight, listed as ABT-263 bis-HCl salt", "result": "✓"},
      {"measurement": "ABT-263 solubility", "setting": "[2]; ILL (Imwitor 742/Labrafil M 1944 CS/Labrasol) 40:40:20 by weight, listed as ABT-263 bis-HCl salt", "result": "✓"},
      {"measurement": "ABT-263 solubility", "setting": "[2]; ILL (Imwitor 742/Labrafil M 1944 CS/Labrasol) 50:30:20 by weight, listed as ABT-263 bis-HCl salt", "result": "✓"},
      {"measurement": "ABT-263 solubility", "setting": "[2]; ILL (Imwitor 742/Labrafil M 1944 CS/Labrasol) 50:40:10 by weight, listed as ABT-263 bis-HCl salt", "result": "✓"},
      {"measurement": "ABT-263 solubility", "setting": "[2]; ILL (Imwitor 742/Labrafil M 1944 CS/Labrasol) 60:30:10 by weight, listed as ABT-263 bis-HCl salt", "result": "✓"},
      {"measurement": "ABT-263 solubility", "setting": "[2]; LIT (Labrafil M 1944 CS/Imwitor 742/Tween 80) 30:40:30 by weight, listed as ABT-263 bis-HCl salt", "result": "✓"},
      {"measurement": "ABT-263 solubility", "setting": "[2]; LIT (Labrafil M 1944 CS/Imwitor 742/Tween 80) 40:30:30 by weight, listed as ABT-263 bis-HCl salt", "result": "✓"},
      {"measurement": "ABT-263 solubility", "setting": "[2]; LLL (Lauroglycol 90/Labrafil M 1944 CS/Labrasol) 40:40:20 by weight", "result": "✓"},
      {"measurement": "ABT-263 solubility", "setting": "[2]; LLL (Lauroglycol 90/Labrafil M 1944 CS/Labrasol) 50:30:20 by weight", "result": "✓"},
      {"measurement": "ABT-263 solubility", "setting": "[2]; LLL (Lauroglycol 90/Labrafil M 1944 CS/Labrasol) 50:40:10 by weight, listed as ABT-263 bis-HCl salt", "result": "✓"},
      {"measurement": "ABT-263 solubility", "setting": "[2]; LLL (Lauroglycol 90/Labrafil M 1944 CS/Labrasol) 60:30:10 by weight, listed as ABT-263 bis-HCl salt", "result": "✓"},
      {"measurement": "ABT-263 solubility", "setting": "[2]; LOT (Labrafil M 1944 CS/oleic acid/Tween 80) 30:40:30 by weight", "result": "✓"},
      {"measurement": "ABT-263 solubility", "setting": "[2]; LOT (Labrafil M 1944 CS/oleic acid/Tween 80) 30:45:25 by weight", "result": "✓"},
      {"measurement": "ABT-263 solubility", "setting": "[2]; LOT (Labrafil M 1944 CS/oleic acid/Tween 80) 40:30:30 by weight", "result": "✓"},
      {"measurement": "ABT-263 solubility", "setting": "[2]; LOT (Labrafil M 1944 CS/oleic acid/Tween 80) 40:35:25 by weight", "result": "✓"},
      {"measurement": "ABT-263 solubility", "setting": "[2]; OLL (oleic acid/Labrafil M 1944 CS/Labrasol) 40:40:20 by weight", "result": "✓"},
      {"measurement": "ABT-263 solubility", "setting": "[2]; OLL (oleic acid/Labrafil M 1944 CS/Labrasol) 50:30:20 by weight", "result": "✓"},
      {"measurement": "ABT-263 solubility", "setting": "[2]; OLL (oleic acid/Labrafil M 1944 CS/Labrasol) 50:40:10 by weight", "result": "✓"},
      {"measurement": "ABT-263 solubility", "setting": "[2]; OLL (oleic acid/Labrafil M 1944 CS/Labrasol) 60:30:10 by weight", "result": "✓"},
      {"measurement": "Solubility", "setting": "[3]; in Capmul MCM", "result": ">321", "unit": "mg/g"},
      {"measurement": "Solubility", "setting": "[3]; in Capmul PG-8", "result": "<43", "unit": "mg/g"},
      {"measurement": "Solubility", "setting": "[3]; in Capmul PG-12", "result": "<39", "unit": "mg/g"},
      {"measurement": "Solubility", "setting": "[3]; in Captex 300", "result": "<52", "unit": "mg/g"},
      {"measurement": "Solubility", "setting": "[3]; in Imwitor 742", "result": ">245", "unit": "mg/g"},
      {"measurement": "Solubility", "setting": "[3]; in Labrafil M 1944 CS", "result": "<45", "unit": "mg/g"},
      {"measurement": "Solubility", "setting": "[3]; in Labrafil M 2125 CS", "result": "<44", "unit": "mg/g"},
      {"measurement": "Solubility", "setting": "[3]; in Labrasol", "result": ">292", "unit": "mg/g"},
      {"measurement": "Solubility", "setting": "[3]; in Lipoid S75 MCT", "result": 48.9, "unit": "mg/g"},
      {"measurement": "Solubility", "setting": "[3]; in Miglyol 810", "result": "<84", "unit": "mg/g"},
      {"measurement": "Solubility", "setting": "[3]; in PE-91 (Phosal 53 MCT+ethanol 9:1 by volume)", "result": 89, "unit": "mg/g"},
      {"measurement": "Solubility", "setting": "[3]; in PEG-400", "result": ">278", "unit": "mg/g"},
      {"measurement": "Solubility", "setting": "[3]; in Tween 20", "result": ">176", "unit": "mg/g"},
      {"measurement": "Solubility", "setting": "[3]; in Tween 80", "result": ">125", "unit": "mg/g"},
      {"measurement": "Solubility", "setting": "[3]; in castor oil", "result": ">78.8", "unit": "mg/g"},
      {"measurement": "Solubility", "setting": "[3]; in corn oil", "result": "<104", "unit": "mg/g"},
      {"measurement": "Solubility", "setting": "[3]; in oleic acid", "result": "<498", "unit": "mg/g"},
      {"measurement": "Solubility", "setting": "[3]; in poloxamer 124", "result": "<41", "unit": "mg/g"},
      {"measurement": "Solubility", "setting": "[3]; in propylene glycol", "result": ">337", "unit": "mg/g"},
      {"measurement": "Solubility", "setting": "[3]; in sesame oil", "result": "<80", "unit": "mg/g"}
    ]}
  ]
}
